Like-named read-outs stand apart in the source and are kept apart here.
Legend:
[1] = tested on: CD36+ erythroid progenitors from cord blood; test: Toxicity of KPT on CD36+ erythroid progenitors with normal EPO; assay type: cell-based, human; conditions: cord blood CD36+ at day 6 (D6) of culture; 33 nM, 100 nM, 333 nM and 1000 nM; normal concentrations of EPO; until 20 h of treatment
Protocol: (§1) Umbilical cord blood units from normal full-term deliveries were obtained, after informed mother's consent, from the Obstetrics Unit of Hôpital Necker-Enfants Malades. CD36+ erythroid progenitors, generated from 7 days IL-6+IL3+SCF-cultured CD34 progenitors isolated from cord blood (Miltenyi CD34 Progenitor Cell Isolation Kit), were cultured in the presence of IL3+SCF+Epo in IMDM (Gibco cell culture) supplemented with 15% BIT 9500 (Stem Cell Technologies).

HSP70 [2] = test: HSP70 nuclear localization in myelodysplastic syndrome CD36+ D8 cells; assay type: cell-based, human; conditions: 100 nM, after 72 h of treatment, compared to non treated cells
Protocol: (§2) 5.10^4 cells were spin on slides, acetone fixated, hydrated with cold 1×PBS 1% BSA for 30 minutes, treated with formaldehyde for 15 min (Sigma), then with methanol (Prolabo) for 10 minutes at room temperature. Cells were then permeabilized with 1×PBS 0.2% triton X100 (Sigma) for 10 min at 4° C., washed and incubated in 10% BSA for 30 minutes. They were then sequentially incubated with antibodies diluted in 1×PBS 1% BSA 0.1% tween (Sigma). Nuclei were stained with DAPI and slides were examined with a confocal laser microscope (LSM 700 Carl Zeiss).

CD36+ D6 = test: Cell death of CD36+ D6 cells during EPO starvation; assay type: cell-based, human; conditions: EPO starvation during 20 h
Protocol: as §1

HSP70 [3] = test: HSP70 nuclear retention in CD36+ D6 cells under EPO starvation; assay type: cell-based, human; conditions: CD36+ D6 from cord blood, after 20 h of treatment
Protocol: as §1, §2

CD36+ D8 cells = test: Erythroid maturation of CD36+ D8 cells (MGG observations); assay type: cell-based, human; conditions: 100 nM, 333 nM and 1000 nM, after 72 h of treatment, compared to non treated cells
HSP70 [4] = conditions: erythroid precursor cells; cited from earlier work

SMILES	toxicity for CD36+ erythroid progenitors [1]	HSP70 nuclear localization (HSP70 [2])	decrease of cell death compared to the absence of KPT treatment (CD36+ D6; 100 nM) [%]	decrease of cell death compared to the absence of KPT treatment (CD36+ D6; 333 nM) [%]	HSP70 nuclear retention (HSP70 [3])	maturation index (mature*100/polychromatic) (CD36+ D8 cells)	number of mature cells (CD36+ D8 cells)	HSP70 nuclear retention (HSP70 [4])
FC(F)(F)c1cc(-c2ncn(/C=C\c3nnco3)n2)cc(C(F)(F)F)c1 [KPT]	not toxic	induces HSP70 nuclear localization	49	39	induces HSP70 nuclear retention	increases	increases the number of mature cells	–
CCC(=C/[C@H](C)C/C=C/C(C)=C/[C@@H](C)C(=O)[C@@H](C)[C@H](O)[C@@H](C)C/C(C)=C/C(=O)O)/C=C/[C@@H]1OC(=O)C=C[C@@H]1C [Leptomycin B]	–	–	–	–	–	–	–	induces HSP70 nuclear retention

From patent US9675590B2, “Methods and pharmaceutical compositions for the treatment of myelodysplastic syndromes” (INSERM (INSTITUT NATIONAL DE LA SANTÉ ET DE LA RECHERCHE …, priority 2014, dated 2017)
